Source: ChEMBL document CHEMBL2216751, “PI3Kδ and PI3Kγ as targets for autoimmune and inflammatory diseases” (J Med Chem, 2012)
pIC50: −log10 of the molar value. Each block holds one molecule with its values, some of them ahead of it.

Assays:
[1] = target: T1, Phosphatidylinositol 4,5-bisphosphate 3-kinase catalytic subunit delta isoform (Homo sapiens, UniProt O00329); assay: Inhibition of PI3Kdelta using phosphatidylinositol as substrate by gamma33P[ATP] incorporation assay
T1 sequence (O00329 whole entry): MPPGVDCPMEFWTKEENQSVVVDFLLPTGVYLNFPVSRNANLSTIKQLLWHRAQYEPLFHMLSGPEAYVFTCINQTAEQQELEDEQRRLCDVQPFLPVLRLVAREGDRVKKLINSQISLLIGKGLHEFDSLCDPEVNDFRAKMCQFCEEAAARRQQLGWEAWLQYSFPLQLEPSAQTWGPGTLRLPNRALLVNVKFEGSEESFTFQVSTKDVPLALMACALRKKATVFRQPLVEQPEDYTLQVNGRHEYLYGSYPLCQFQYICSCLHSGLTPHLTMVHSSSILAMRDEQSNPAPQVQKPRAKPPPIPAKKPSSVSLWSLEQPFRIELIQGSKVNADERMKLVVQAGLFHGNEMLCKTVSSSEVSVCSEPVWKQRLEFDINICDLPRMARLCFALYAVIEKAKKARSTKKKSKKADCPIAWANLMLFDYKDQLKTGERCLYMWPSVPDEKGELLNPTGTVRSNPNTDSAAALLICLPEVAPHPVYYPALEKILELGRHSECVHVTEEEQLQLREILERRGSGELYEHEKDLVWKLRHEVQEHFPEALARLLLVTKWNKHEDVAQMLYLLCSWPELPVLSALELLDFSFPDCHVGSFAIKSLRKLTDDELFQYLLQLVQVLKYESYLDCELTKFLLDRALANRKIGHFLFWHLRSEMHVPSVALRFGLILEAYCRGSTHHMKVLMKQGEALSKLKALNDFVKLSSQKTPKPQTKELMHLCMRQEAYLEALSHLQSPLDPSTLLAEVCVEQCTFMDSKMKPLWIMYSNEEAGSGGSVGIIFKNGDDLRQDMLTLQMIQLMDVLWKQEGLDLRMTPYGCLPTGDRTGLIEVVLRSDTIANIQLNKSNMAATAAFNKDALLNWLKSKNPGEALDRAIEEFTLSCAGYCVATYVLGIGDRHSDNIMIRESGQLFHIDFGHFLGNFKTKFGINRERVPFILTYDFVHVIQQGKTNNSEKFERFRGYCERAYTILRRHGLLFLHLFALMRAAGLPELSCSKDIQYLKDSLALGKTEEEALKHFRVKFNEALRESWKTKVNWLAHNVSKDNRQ

[2] = target: T2, Phosphatidylinositol 4,5-bisphosphate 3-kinase catalytic subunit delta isoform (Mus musculus, UniProt O35904); assay: Inhibition of PI3Kdelta-mediated AKT phosphorylation in mouse Raw 264.7 cells by immunoassay; type: cell-based
T2 sequence (O35904 whole entry): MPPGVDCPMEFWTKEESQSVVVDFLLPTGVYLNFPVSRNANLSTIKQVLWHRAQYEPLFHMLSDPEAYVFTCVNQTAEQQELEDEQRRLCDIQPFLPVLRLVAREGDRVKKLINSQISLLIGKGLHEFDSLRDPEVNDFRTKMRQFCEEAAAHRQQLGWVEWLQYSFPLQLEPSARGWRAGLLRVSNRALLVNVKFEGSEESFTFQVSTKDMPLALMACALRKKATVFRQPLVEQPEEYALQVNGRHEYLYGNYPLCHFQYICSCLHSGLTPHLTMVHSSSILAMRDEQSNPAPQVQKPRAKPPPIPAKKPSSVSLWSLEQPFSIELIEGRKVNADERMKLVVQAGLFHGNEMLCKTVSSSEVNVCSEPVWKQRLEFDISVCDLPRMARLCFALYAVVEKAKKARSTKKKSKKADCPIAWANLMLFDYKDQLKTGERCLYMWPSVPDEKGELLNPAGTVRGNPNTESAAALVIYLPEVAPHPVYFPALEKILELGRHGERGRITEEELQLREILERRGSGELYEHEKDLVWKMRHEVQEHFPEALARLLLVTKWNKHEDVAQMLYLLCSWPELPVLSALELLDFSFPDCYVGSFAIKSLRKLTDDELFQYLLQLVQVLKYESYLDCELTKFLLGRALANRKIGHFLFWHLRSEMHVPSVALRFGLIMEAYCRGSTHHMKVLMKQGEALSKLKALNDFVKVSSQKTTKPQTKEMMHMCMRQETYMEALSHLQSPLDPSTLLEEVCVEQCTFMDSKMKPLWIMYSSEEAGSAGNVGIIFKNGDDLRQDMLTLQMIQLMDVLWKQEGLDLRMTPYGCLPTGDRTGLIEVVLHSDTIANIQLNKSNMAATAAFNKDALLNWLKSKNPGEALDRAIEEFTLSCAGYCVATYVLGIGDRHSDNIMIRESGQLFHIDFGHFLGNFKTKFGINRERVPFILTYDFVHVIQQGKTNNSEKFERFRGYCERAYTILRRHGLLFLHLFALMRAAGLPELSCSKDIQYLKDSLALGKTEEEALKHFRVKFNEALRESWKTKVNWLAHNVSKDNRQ

[3] = target: T1, Phosphatidylinositol 4,5-bisphosphate 3-kinase catalytic subunit delta isoform; conditions: read-out: IC50
[4] = target: T1, Phosphatidylinositol 4,5-bisphosphate 3-kinase catalytic subunit delta isoform; assay: Inhibition of PI3Kdelta in human PBMC assessed as inhibition of anti-IgM-induced AKT phosphorylation by FACS analysis
[5] = tested on: Mus musculus; assay: Antiinflammatory activity in LPS-induced COPD BALB/c mouse model assessed as reduction in pulmonary neutrophilia at 0.4 % administered as aerosolized formulation; type: functional; design: scale not given: the % may be the effect or the level left
[6] = tested on: Mus musculus; assay: Antiinflammatory activity in ovalbumin-sensitized mouse asthma model assessed as reduction in airway-hyper responsiveness at 0.4 % administered as aerosolized formulation for 12 to 14 days; type: functional; design: scale not given: the % may be the effect or the level left
[7] = tested on: Rattus norvegicus; assay: Antiinflammatory activity in Sprague-Dawley rat assessed as reduction in PAF/dextran-induced hind paw edema at 5 mg/kg; type: functional; design: scale not given: the % may be the effect or the level left
[8] = tested on: Sus scrofa; assay: Cardioprotective activity in pig MI model assessed as reduction in coronary artery occlusion at 0.5 mg/kg, iv administered as single bolus dose post 90 mins of reperfusion measured after 24 hrs; type: functional; design: scale not given: the % may be the effect or the level left
[9] = tested on: Mus musculus; assay: Antiinflammatory activity in cigarette smoking-induced COPD BALB/c mouse model assessed as reduction in pulmonary neutrophilia at 0.4 % administered as aerosolized formulation; type: functional; design: scale not given: the % may be the effect or the level left
[10] = tested on: Mus musculus; assay: Antiinflammatory activity in ovalbumin-sensitized mouse asthma model assessed as reduction in lung eosinophils at 0.4 % administered as aerosolized formulation for 12 to 14 days; type: functional; design: scale not given: the % may be the effect or the level left
[11] = tested on: Rattus norvegicus; assay: Cardioprotective activity in Sprague-Dawley rat MI model assessed as reduction in coronary artery occlusion at 0.05 to 5 mg/kg, iv administered as single bolus dose post 60 mins of reperfusion measured after 24 hrs; type: functional; design: scale not given: the % may be the effect or the level left; conditions: dose mg/kg 0.05-5
[12] = organism: Mus musculus; assay: Antiarthritic activity in adjuvant-induced rheumatoid arthritis mouse model assessed as reduction in disease clinical score; type: functional; design: scale not given: the % may be the effect or the level left
[13] = target: T1, Phosphatidylinositol 4,5-bisphosphate 3-kinase catalytic subunit delta isoform; assay: Inhibition of PI3Kdelta assessed as inhibition of H2O2-induced AKT phosphorylation by cell-based assay

pIC50 [1]: 5.98
SMILES: O=c1cc(N2CCOCC2)oc2c(-c3ccccc3)cccc12 [LY-294002]

pIC50 [2]: > 8.00
pIC50 [3]: 8.22
SMILES: O=C1NC(=O)/C(=C/c2ccc3ncnc(N4CCC(C(F)(F)F)CC4)c3n2)S1

pIC50 [4]: 7.80
SMILES: COc1cc(Nc2nc3ccccc3nc2NS(=O)(=O)c2ccc(CN(C)C)cc2)cc(OC)c1

SMILES: Nc1nc(N)c2nc(-c3cccc(O)c3)c(-c3cccc(O)c3)nc2n1 [TG100-115]
Activity [5]: 42%
Activity [6]: 50%
Activity [7]: >=62%
Activity [8]: 35%
Activity [9]: >=81%
Activity [10]: 79%
Activity [11]: >=40%

SMILES: O=C1NC(=O)/C(=C/c2ccc3nccnc3c2)S1
Activity [12]: 40%

pIC50 [13]: 6.24
SMILES: C#Cc1cccc2nc(Cn3nc(-c4cccc(O)c4)c4c(N)ncnc43)n(Cc3cccc(OC)c3)c(=O)c12
